How the values were obtained:
[1] = tested on: H1975 (EGFR L858R/T790M double mutation); test: Cell antiproliferative assay (CTG, 72 h), H1975; assay type: cell-based, human; conditions: Table 2, H1975 cells
Outline: (§1)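 Cells seeded at 1500-2500 per well, compounds added about 24 h later as a 1:4 gradient from 10,000 nM top concentration in triplicate. After 72 h, viability read by CellTiter-Glo luminescence relative to 0.1% DMSO and blank-medium controls; IC50 from curve fitting.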

EGFR = target: T1, EGFR (Homo sapiens, UniProt P00533, DEL746-750); test: EGFR PROTAC In Cell Western assay in HCC827; assay type: cell-based; conditions: HCC827, EGFR degradation, 16 hours of incubation; for Dmax: HCC827, Table 4
T1 construct: host or cells: HCC827
Excerpt: Test Example 2 EGFR PROTAC in Cell Western Assay
HCC827 cell culture medium was purchased from Corning. Cell line HCC827 was purchased from BeNa Culture Collection; EGF Receptor (D38B1) XP Rabbit mAb antibody and β-Actin (8H10D10) Mouse mAb antibody were from CST. IRDye 800CW, IRDye 680RD, and Intercept blocking solution (PBS) were purchased from Licor. Triton-100 was purchased from sigma, and 96-well black cell culture imaging microtiter plates were purchased from Agilent.
1) HCC827 cells were cell counted and cells were inoculated into 96-well black cell culture imaging microtiter plates at a density of 40,000 cells per well, with 100 μl per well. The plate was incubated overnight in a CO2 incubator.
2) Day 1: A gradient dilution of the compound to be tested was added to the cells of the culture plate (with a starting concentration of […], 9 concentrations, a dilution ratio of 1:3, 2 duplicate wells), with a final concentration of DMSO being 0.5%, and a blank control of DMSO without compound. The plate was placed in the cell culture incubator for a final 16 hours of incubation.
3) The culture medium was removed from the 96 wells with a pipette and the residual medium was washed with […] of PBS per well on a shaker for 5 min. After the removal of PBS, cells were quickly fixed by adding 150 μl of fresh fixation buffer (3.7% paraformaldehyde) and incubated for 20 min at room temperature.
4) The fixation buffer was removed and […] of Triton elution buffer (0.3% Triton-100) was added to wash for four times on a shaker for 5 minutes each time.
5)[…] LI-COR Odyssey blocking solution was added and the cells were incubated for 1.5 hours at room temperature with slow shaking on a shaker.
6) To block the samples, a primary antibody against EGFR and Actin were prepared using Antibody Dilution Buffer at a ratio of 1:300. The blocking solution was poured out and the diluted primary antibody was added (at a total volume of 50 μl/per well). The cell plate was covered and incubated at 4° C. overnight.
7) The cell plate was washed four times with PBS+Triton X-100 for 5 minutes each time.
8) Fluorescently labeled secondary antibodies IRDye® 680RD and IRDye® 800CW were diluted with Antibody Dilution Buffer (with a ratio of 1:600, at a total volume of 50 μl/well) and then incubated for one hour at room temperature, protected from light.
9) The cell plate was washed four times with PBS+Triton X-100 for 5 minutes each time.
After pipetting the PBS thoroughly, the plate was inverted and imaged on a Burroughs imager. A multiple exposure program was selected, IRDye 680RD Blot was chosen for the first channel, and IRDye 800CW Blot was chosen for the second channel. […] The blank group was the DMSO group, EGFR/Actin was calculated as the EGFR value of the corresponding sample wells, and the degradation rate=100-100*EGFR signal/DMSO signal. The DC50 and Dmax of the degraded EGFR proteins were calculated by fitting curves using the Prism software, 3-parameter method.

[2] = tested on: PC-9 (EGFR exon 19 deletion); test: Cell antiproliferative assay (CTG, 72 h), PC-9; assay type: cell-based, human; conditions: Table 2, PC-9 cells
Outline: as §1

[3] = tested on: HCC827 (exon 19 deletion mutation); test: Cell antiproliferative assay (CTG, 72 h), HCC827; assay type: cell-based, human; conditions: Table 2, HCC827 cells
Outline: as §1

T1 sequence (P00533 with tags, fused parts or gaps DEL746-750): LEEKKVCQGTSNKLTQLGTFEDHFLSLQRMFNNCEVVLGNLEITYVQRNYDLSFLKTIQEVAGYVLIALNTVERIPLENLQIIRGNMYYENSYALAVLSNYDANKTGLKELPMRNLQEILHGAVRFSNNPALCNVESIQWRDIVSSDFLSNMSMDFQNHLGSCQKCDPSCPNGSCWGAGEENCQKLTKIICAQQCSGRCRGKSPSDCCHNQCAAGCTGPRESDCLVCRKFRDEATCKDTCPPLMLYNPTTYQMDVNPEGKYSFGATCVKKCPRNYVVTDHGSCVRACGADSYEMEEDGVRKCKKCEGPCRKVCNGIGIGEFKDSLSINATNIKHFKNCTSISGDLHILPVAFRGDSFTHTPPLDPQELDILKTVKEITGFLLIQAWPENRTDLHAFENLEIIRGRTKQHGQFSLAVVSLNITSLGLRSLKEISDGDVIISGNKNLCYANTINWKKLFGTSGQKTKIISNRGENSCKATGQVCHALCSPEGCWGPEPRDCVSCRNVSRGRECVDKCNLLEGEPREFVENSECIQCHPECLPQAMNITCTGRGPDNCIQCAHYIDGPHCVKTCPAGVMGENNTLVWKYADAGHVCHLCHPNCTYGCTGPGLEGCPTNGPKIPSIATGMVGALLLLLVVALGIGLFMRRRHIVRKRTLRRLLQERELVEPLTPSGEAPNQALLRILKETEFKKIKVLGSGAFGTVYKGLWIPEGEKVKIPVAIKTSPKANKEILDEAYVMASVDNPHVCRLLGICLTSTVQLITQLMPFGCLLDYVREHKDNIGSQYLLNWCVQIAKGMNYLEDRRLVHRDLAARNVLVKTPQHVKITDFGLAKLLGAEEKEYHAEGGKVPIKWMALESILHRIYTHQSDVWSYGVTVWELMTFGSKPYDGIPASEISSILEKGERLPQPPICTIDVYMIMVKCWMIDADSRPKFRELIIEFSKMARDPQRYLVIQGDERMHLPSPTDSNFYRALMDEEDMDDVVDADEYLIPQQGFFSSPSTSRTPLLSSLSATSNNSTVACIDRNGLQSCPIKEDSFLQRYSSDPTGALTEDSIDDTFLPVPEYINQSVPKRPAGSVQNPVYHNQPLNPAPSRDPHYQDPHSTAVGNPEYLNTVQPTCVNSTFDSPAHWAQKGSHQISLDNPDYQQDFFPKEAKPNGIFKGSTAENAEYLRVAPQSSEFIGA

Row | IC50 ([1]; Homo sapiens, NCI-H1975, 72 h) [nM] | Dmax (EGFR) [%] | DC50 (EGFR; Table 4) [nM] | IC50 ([2]; Homo sapiens, PC-9, 72 h) [nM] | IC50 ([3]; Homo sapiens, HCC827, 72 h) [nM] | IC50 [1] [nM] | Dmax(%) (EGFR; Table 4) | IC50 [2] [nM] | IC50 [3] [nM] | SMILES
1 | 100 to 1000 | 50 to 70 | 100 to 1000 | ≥ 1000 | 100 to 1000 |  |  |  |  | COc1cc(N2CCC(N3CCN(C(=O)CN4CCC(c5ccc(NC6CCC(=O)NC6=O)cc5)CC4)CC3)CC2)ccc1Nc1ncc(Cl)c(Nc2ccccc2C(C)=O)n1 (centres unmarked) [Compound T-121]
2 |  |  | 10 to 100 |  |  | 10 to 100 | C (C<50%) | 100 to 1000 | 100 to 1000 | COc1cc(N2CCC(N(C)C(=O)CN3CCC(c4ccc(NC5CCC(=O)NC5=O)cc4)CC3)CC2)ccc1Nc1ncc(C(F)(F)F)c(Nc2ccccc2C(C)=O)n1 (centres unmarked) [Compound T-224]
3 | ≤ 10 | 70 to 100 | ≤ 10 | 10 to 100 | 10 to 100 |  |  |  |  | COc1cc(N2CCN(C(=O)CN3CCC(c4ccc(NC5CCC(=O)NC5=O)cc4)CC3)CC2)ncc1Nc1ncc(C(F)(F)F)c(Nc2ccccc2C(C)=O)n1 (centres unmarked) [Compound T-246]
4 | 10 to 100 | 70 to 100 | ≤ 10 | 100 to 1000 | 100 to 1000 |  |  |  |  | COc1cc(N2CCN(C(=O)CN3CCC(c4ccc(NC5CCC(=O)NC5=O)cc4)CC3)CC2)ccc1Nc1ncc(Cl)c(Nc2ccccc2P(C)(C)=O)n1 (centres unmarked) [Compound T-13]
5 | 10 to 100 | 50 to 70 | 10 to 100 | 100 to 1000 | 10 to 100 |  |  |  |  | COc1cc(N2CCN(C(=O)CN3CCC(c4ccc(NC5CCC(=O)NC5=O)cc4)CC3)CC2)ccc1Nc1ncc(C(F)(F)F)c(Nc2ccccc2C(C)=O)n1 (centres unmarked) [Compound T-47]
6 | 100 to 1000 | < 50 | 100 to 1000 | 100 to 1000 | 100 to 1000 |  |  |  |  | COc1cc(C2CCN(C(=O)CN3CCC(c4ccc(NC5CCC(=O)NC5=O)cc4)CC3)CC2)ccc1Nc1ncc(Cl)c(Nc2ccccc2C(C)=O)n1 (centres unmarked) [Compound T-334]

The remaining lines, values behind:

Row | SMILES | IC50 ([1]; Homo sapiens, NCI-H1975, 72 h) [nM] | Dmax (EGFR) [%] | DC50 (EGFR; Table 4) [nM] | IC50 ([2]; Homo sapiens, PC-9, 72 h) [nM] | IC50 ([3]; Homo sapiens, HCC827, 72 h) [nM] | IC50 [1] [nM] | Dmax(%) (EGFR; Table 4) | IC50 [2] [nM] | IC50 [3] [nM]
7 | COc1cc(N2CCN(C(=O)CN3CCN(c4ccc(NC5CCC(=O)NC5=O)cc4)CC3)CC2)ccc1Nc1ncc(Br)c(Nc2ccccc2C(C)=O)n1 (centres unmarked) [Compound T-84] | 10 to 100 | 70 to 100 | 10 to 100 | 100 to 1000 | 100 to 1000 |  |  |  | 
8 | COc1cc(N2CCN(C(=O)CN3CCC(c4ccc(NC5CCC(=O)NC5=O)cc4)CC3)CC2)c(-c2cnn(C)c2)cc1Nc1ncc(Cl)c(Nc2ccccc2C(C)=O)n1 (centres unmarked) [Compound T-233] | 10 to 100 | 50 to 70 | 10 to 100 | 100 to 1000 | 10 to 100 |  |  |  | 
9 | COc1cc(N2CC3CC(C2)N3C(=O)CN2CCC(c3ccc(NC4CCC(=O)NC4=O)cc3)CC2)ccc1Nc1ncc(Cl)c(Nc2ccccc2C(C)=O)n1 (centres unmarked) [Compound T-125] | 100 to 1000 | < 50 | 10 to 100 | ≥ 1000 | 100 to 1000 |  |  |  | 
10 | COc1cc(N2CCN(C(=O)CN3CCN(c4ccc(NC5CCC(=O)NC5=O)nc4)CC3)CC2)ccc1Nc1ncc(Cl)c(Nc2ccccc2C(C)=O)n1 (centres unmarked) [Compound T-101] | 100 to 1000 | 50 to 70 | 10 to 100 | 100 to 1000 | 100 to 1000 |  |  |  | 
11 | COc1cc(N2CCC(N3CCN(C(=O)CN4CCC(c5ccc(NC6CCC(=O)NC6=O)cc5)CC4)CC3)CC2)ccc1Nc1ncc(Cl)c(Nc2ccccc2N(C)S(C)(=O)=O)n1 (centres unmarked) [Compound T-211] | 10 to 100 | 50 to 70 | 10 to 100 | 100 to 1000 | 10 to 100 |  |  |  | 
12 | COc1cc(N2CCC(NC(=O)CN3CCC(c4ccc(NC5CCC(=O)NC5=O)cc4)CC3)CC2)ccc1Nc1ncc(Cl)c(Nc2ccccc2C(C)=O)n1 (centres unmarked) [Compound T-336] | 100 to 1000 | < 50 | 10 to 100 | 100 to 1000 | 100 to 1000 |  |  |  | 
13 | C=CC(=O)Nc1cc(Nc2ncc(Cl)c(Nc3ccccc3)n2)c(OC)cc1N1CCN(C(=O)CN2CCC(c3ccc(NC4CCC(=O)NC4=O)cc3)CC2)CC1 (centres unmarked) [Compound T-335] | 100 to 1000 | 50 to 70 | 100 to 1000 | 100 to 1000 | 100 to 1000 |  |  |  | 

Source: patent publication US20250129086A1, “COMPOUND FOR DEGRADING EGFR PROTEIN AND USE THEREOF” (TYK MEDICINES, INC., priority 2021, published 2025)
